{"source": "patent US20100272814A1", "about": "“METHOD AND MEANS FOR PRODUCING BRONCHORELAXATION” (priority 2007, published 2010)", "key": {"[1]": {"conditions": "cited from earlier work; for absorption of the oral intake / oral dose: from food or intestine"}, "[2]": {"tested_on": "airway obstruction in a patient with COPD", "assay": "Administration of iodine on activated charcoal to a patient with COPD (spirometric evaluation and symptoms)", "type": "in vivo, human", "conditions": "oral intake for a few days, subjective observation"}}, "data": [{"smiles": "[Cl][Hg][Cl]", "note": "[mercuric chloride]", "values": [{"measurement": "absorption of the oral intake / oral dose", "setting": "[1]", "value": "about 7%"}]}, {"smiles": "II", "note": "[elemental iodine]", "values": [{"measurement": "bronchorelaxing effect / relief of airway obstruction", "setting": "[2]", "value": "no distinct bronchorelaxing effect was observed"}]}, {"smiles": "[CH3][Hg][Cl]", "note": "[Methylmercury]", "values": [{"measurement": "half time in whole body", "setting": "[1]; in vivo", "value": "around 70 days"}, {"measurement": "absorption of the oral intake / oral dose", "setting": "[1]", "value": "about 95%"}]}]}
